Results as given in PMC2857364, “Inhibition of Nitric Oxide (NO) Production in Lipopolysaccharide (LPS)-Activated Murine Macrophage RAW 264.7 Cells by the Norsesterterpene Peroxide, Epimuqubilin A” (Marine Drugs, 2010).
Where a name gives a salt, the structure may show the parent alone. Read-outs that look alike come from different tables or passages of the source.

Legend:
[1] = SRB assay for cytotoxic effect in RAW 264.7 cells under the NO assay condition; assay type: cell-based, murine; conditions: mouse, RAW 264.7 macrophage cells (LPS-activated); for activity at 20 h, 20 μg/mL: 20 μg/mL after 20 h incubation in RAW 264.7 cells, read-out: Cytotoxic activity % Survival; for IC50 at 20 h: RAW 264.7 cells, SRB
Method: (§1) In addition, to determine whether the inhibitory effects of compounds on NO production were due to specific pharmacological activities, or non-specific cell cytotoxicity leading to false positive results, RAW 264.7 cell viability was determined by using the sulforhodamine B (SRB) protein staining method. Compounds 1 and 6 mediated a modest cytototoxic response, with 36.1 and 43.0% percent survival, respectively, at the highest concentration tested (20 μg/mL; 51.0 μM). Cytotoxic effects diminished with lower concentrations. […] Further experiments will be performed to determine whether epimuqubilin A inhibits nitrite production via suppression of iNOS expression in the levels of protein.
(§2) The inhibitory effects of samples on NO production were evaluated in LPS-activated murine macrophage RAW 264.7 cells, using a method modified from that previously reported. Briefly, RAW 264.7 cells were cultured in Dulbecco’s modified Eagle’s medium (DMEM) supplemented with penicillin G sodium (100 units/mL), streptomycin sulfate (100 μg/mL), amphotericin B (0.25 μg/mL), and 10% fetal bovine serum (FBS). The cells were seeded in 96-well culture plates with 1 × 10^5 cells/well and incubated for 24 h at 37°C in a humidified atmosphere containing 5% CO2. The cells were treated with samples dissolved in phenol red-free DMEM for 30 min followed by 1 μg/mL of LPS treatment for 20 h. The amount of NO in the cultured medium was measured by the Griess reagent. The standard curve was created by using known concentrations of sodium nitrite, and the absorbance was measured at 540 nm. To evaluate the cytotoxic effect of samples in RAW 264.7 cells in the assay condition, SRB assay was performed. Briefly, after the fixation with 10% trichloroacetic acid (TCA), cells were stained with 0.4% SRB solution in 1% acetic acid followed by dissolving bound SRB in 10 mM Tris-buffer. The optical density was determined at 515 nm.

[2] = system: RAW 264.7 cells; assay: as above; assay type: cell-based, murine; conditions: for Cytotoxic effects: at 12.8 μM, RAW 264.7 cells, SRB
Method: as §1, §2

[3] = system: GSK-3β; assay type: cell-based, yeast; conditions: disk alone 7 mm
Method: Disruption of four yeast GSK-3 homologs (MCK1, MDS1, MRK1 and YOL128C) in gsk-3 null mutant confers a temperature-sensitive phenotype (growth defect at 37 °C), that can be suppressed by the expression of cloned mammalian GSK-3β [29]. Inhibition of GSK-3β should therefore mimic the phenotype of the gsk-3 null mutant, indicated by growth inhibition of transformant of gsk-3 null with pKT10-GSK-3β only at 37 °C. A genetically modified yeast strain, H10075 with genotype {MAT α his3 leu2 ura3 trp1 ade2 mck1::TRP1 mds1::HIS3 mrk1 yol128c::LEU2 [pKT10-GSK-3β], was grown in 5 mL of liquid media of SC minus uracil, shaking, at 37 °C for 2 days. Four hundred-μL of the yeast culture was added to 100 mL of SC minus uracil agar [0.67% yeast nitrogen base without amino acids and ammonium sulfate, 0.5% ammonium sulfate, 2% D-(+)-glucose anhydrate, 1 mL each of 0.03 mg/mL of adenine (hemisulfate salt), 0.03 mg/mL of L-tryptophan, 0.03 mg/mL of L-leucine, 0.03 mg/mL of L-histidine and 1.5% bacteriological agar, pH 5.6]. […] The Petri dishes were incubated at both 25 °C and 37 °C for 72 hours. Three phenotypes are observed on yeast plates. A clear zone of inhibition (ZOI) at 37 °C and no ZOI at 25 °C indicate that the agent tested inhibits the GSK-3β pathway. The clear zones of inhibition at both 37 and 25 °C of equal width indicate that the agents are cytotoxic. Plates that have a negative phenotype are plates that have no observable ZOI. […] The assays were performed in duplicate.

[4] = system: NO production in LPS-activated murine macrophage RAW 264.7 cells; assay: Assay for NO inhibitory effect using LPS-activated RAW 264.7 cells (Griess reagent); assay type: cell-based; conditions: for IC50: LPS (1 μg/mL, 20 h)-activated RAW 264.7 cells
Method: as §2

Row | Structure (SMILES) | activity at 20 h, 20 μg/mL [1] [%] | Yeast GSK-3β zone of inhibition ([3]; 25 °C, 20 μg/disk) | Yeast GSK-3β zone of inhibition ([3]; 37 °C, 20 μg/disk) [mm] | Yeast GSK-3β zone of inhibition ([3]; 37 °C, 40 μg/disk) | IC50 ([4]; Mus musculus, RAW264.7, 20 h) [µM] | other results
1 | CC1=C(CC/C(C)=C/CC[C@@]2(C)CC[C@@H]([C@H](C)C(=O)O)OO2)C(C)(C)CCC1 [Compound 1, epimuqubilin A] | 36.1 | no ZOI | 8 | 10–13 mm | 7.4 | IC50 at 20 h [1]: 37.1 µM; Cytotoxic effects [2]: no significant cytotoxic effects; Yeast GSK-3β zone of inhibition ([3]; 37 °C, 20 μg/disk, listed as Epimuqubilin A (1)): 9 mm; Yeast GSK-3β zone of inhibition ([3]; 37 °C, 40 μg/disk, listed as Epimuqubilin A (1)): 10 mm
2 | CC(=O)CCCC(C)(C)C(=O)CCC(C)=CCCC1(C)CCC(C(C)C(=O)O)OO1 (stereo not drawn) [Compound 2, muqubilone B] | 99 | – | – | – | 23.8 | –
3 | COC(=O)C(C)C1CCC(C)(CCC=C(C)CCC=C(C)CCC=C(C)C)OO1 (stereo not drawn) [Compound 3] | > 100 | – | – | – | 46 | –
4 | C=C1CCCC(C)(C)C1(O)CC/C(C)=C/CC[C@]1(C)CC[C@H]([C@@H](C)C(=O)OC)OO1 (stereo partly drawn) [Compound 4, epimuqubilin B] | > 100 | no ZOI | 8 | 10–13 mm | 25.6 | Yeast GSK-3β zone of inhibition ([3]; 37 °C, 40 μg/disk, listed as Epimuqubilin B (4)): 10 mm
5 | C=C1CCCC2C1(C)CCC(C)C2(C)CCC1(C)CCC(C(C)C(=O)OC)OO1 (stereo not drawn) [Compound 5, sigmosceptrellin A methyl ester] | – | – | – | – | – | Cytotoxic activity % Survival ([2]; 20 μg/mL after 20 h incubation in RAW 264.7 cells, listed as Sigmosceptrellin A methyl ester (5)): 90.6%; IC50 ([4]; listed as Sigmosceptrellin A methyl ester (5)): > 100 µM; NO inhibitory activity (in words) ([4]; LPS-activated RAW 264.7 cells): inactive
6 | C=C1CCC[C@H]2[C@](C)(CC[C@]3(C)CC[C@H]([C@@H](C)C(=O)O)OO3)[C@@H](C)CC[C@]12C [Compound 6, sigmosceptrellin A] | 43 | no ZOI | 8 | 10–13 mm | 9.9 | IC50 at 20 h [1]: 42.7 µM; Cytotoxic effects [2]: no significant cytotoxic effects; Yeast GSK-3β zone of inhibition ([3]; 37 °C, 5 μg/disk): 8 mm; Yeast GSK-3β zone of inhibition ([3]; 37 °C, 10 μg/disk): 10 mm; Yeast GSK-3β zone of inhibition ([3]; 37 °C, 20 μg/disk, listed as Sigmosceptrellin A (6)): 11 mm; Yeast GSK-3β zone of inhibition ([3]; 37 °C, 40 μg/disk, listed as Sigmosceptrellin A (6)): 13 mm
7 | C=C1CCCC2C1(C)CCC(C)C2(C)CCC1(C)CCC(C(C)C(=O)OC)OO1 (stereo not drawn) [Compound 7, sigmosceptrellin B methyl ester] | > 100 | – | – | – | 65.7 | –
8 | [H]/N=C(/NC)NCCC[C@H](N)C(=O)O [L-NMMA, L-N^G-Monomethyl Arginine citrate, reference compound] | > 100 | – | – | – | 25.5 | –
9 | Cn1sc(=O)n(Cc2ccccc2)c1=O [TDZD-8, 4-Benzyl-2-methyl-1,2,4-thiadiazolidine-3,5-dione, reference compound] | – | 10 mm | 11 | 15 mm | – | Yeast GSK-3β zone of inhibition ([3]; 25 °C, 5 μg/disk): 8 mm; Yeast GSK-3β zone of inhibition ([3]; 25 °C, 10 μg/disk): 9 mm; Yeast GSK-3β zone of inhibition ([3]; 25 °C, 40 μg/disk): 12 mm; Yeast GSK-3β zone of inhibition ([3]; 37 °C, 5 μg/disk): 9 mm; Yeast GSK-3β zone of inhibition ([3]; 37 °C, 10 μg/disk): 10 mm
